Laboratory results: PubChem BioAssay AID1919002 (Molecular Pharmacology Branch, DTP, NCI, 2023)

Tested on: 743489-274-T-PDC complex spheroid growth
Assay: Anticancer human tumor 743489-274-T-PDC patient-derived renal cell carcinoma cell line growth inhibition [AhR]
Settings: for IC50: curve of first compound; for viability, T/C: stronger effect = lower value
In short: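 Spheroids combined tumor cells with HUVEC endothelial cells and human MSCs as stroma. AhR antagonists were paired with standard or investigational drugs, each dosed in half-log steps down from near clinical Cmax, or from 10 microM where Cmax was unknown.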
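Also: spheroids exposed to agents for 7 days before readout.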
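For viability, T/C in this document: 100% = DMSO vehicle control wells.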

CC(C)c1c(-c2ccccc2)nc2c(C#N)c[nH]n2c1=O + Cc1cncc(-c2nc(NCCc3c[nH]c4ccccc34)c3ncn(C(C)C)c3n2)c1
IC50 (second compound 0.1 µM): > 10 µM
IC50 (second compound 0.316 µM): > 10 µM
IC50 (second compound 1 µM): > 10 µM
IC50 (second compound 3.16 µM): > 10 µM
IC50 (second compound 10 µM): > 10 µM
viability, T/C (second compound 0.1 µM, first compound 0.0316 µM): 101%
viability, T/C (second compound 0.1 µM, first compound 0.1 µM): 126%
viability, T/C (second compound 0.1 µM, first compound 0.316 µM): 104%
viability, T/C (second compound 0.1 µM, first compound 1 µM): 103%
viability, T/C (second compound 0.1 µM, first compound 3.16 µM): 96.2%
viability, T/C (second compound 0.1 µM, first compound 10 µM): 104%
viability, T/C (second compound 0.316 µM, first compound 0.0316 µM): 112%
viability, T/C (second compound 0.316 µM, first compound 0.1 µM): 104%
viability, T/C (second compound 0.316 µM, first compound 0.316 µM): 101%
viability, T/C (second compound 0.316 µM, first compound 1 µM): 107%
viability, T/C (second compound 0.316 µM, first compound 3.16 µM): 100%
viability, T/C (second compound 0.316 µM, first compound 10 µM): 96.7%
viability, T/C (second compound 1 µM, first compound 0.0316 µM): 107%
viability, T/C (second compound 1 µM, first compound 0.1 µM): 103%
viability, T/C (second compound 1 µM, first compound 0.316 µM): 111%
viability, T/C (second compound 1 µM, first compound 1 µM): 96.7%
viability, T/C (second compound 1 µM, first compound 3.16 µM): 105%
viability, T/C (second compound 1 µM, first compound 10 µM): 102%
viability, T/C (second compound 3.16 µM, first compound 0.0316 µM): 114%
viability, T/C (second compound 3.16 µM, first compound 0.1 µM): 119%
viability, T/C (second compound 3.16 µM, first compound 0.316 µM): 121%
viability, T/C (second compound 3.16 µM, first compound 1 µM): 119%
viability, T/C (second compound 3.16 µM, first compound 3.16 µM): 110%
viability, T/C (second compound 3.16 µM, first compound 10 µM): 115%
viability, T/C (second compound 10 µM, first compound 0.0316 µM): 126%
viability, T/C (second compound 10 µM, first compound 0.1 µM): 141%
viability, T/C (second compound 10 µM, first compound 0.316 µM): 133%
viability, T/C (second compound 10 µM, first compound 1 µM): 125%
viability, T/C (second compound 10 µM, first compound 3.16 µM): 109%
viability, T/C (second compound 10 µM, first compound 10 µM): 134%
